According to patent publication US20240410831A1, “Multi-Mode Zinc-Selective Emission-Ratiometric Fluorescent Probes for Biological Application” (Georgia Tech Research Corporation, priority 2023, published 2024):

Experiments:
[1] = Fluorometric competition titration with EGTA, Zn(II) complex stability constant; assay type: binding
Method: FIG. 6A illustrates the fluorometric determination of the Zn(II) complex stability constant of probe 8 via competition titration with EGTA. (A) of FIG. 6A illustrates an exemplary Formula I, Formula II, and/or a derivative thereof (e.g., for example probe 8) (10 μM) that was equilibrated with molar equivalent of Zn(OTf)2 in chelexed PIPES buffer (pH 7.0, 10 mM PIPES, 0.1 M KCl, 25° C.) containing 100 μM 4:1 DMPC:DMPG liposomes and titrated with EGTA to a final concentration of 50 μM. The fluorescence spectra (excitation at 405 nm) were analyzed by non-linear least squares fitting. (B) FIG. 6A illustrates an exemplary change in fluorescence response at 515 nm with the corresponding fit using the equilibrium system model as defined in the table of FIG. 6B.
The binding affinity of Formula I, Formula II, and/or a derivative thereof (e.g., for example probe 8) was analyzed in PIPES buffer containing 100 μM of 4:1 DMPC:DMPG liposomes (pH 7.0, 10 mM PIPES, 0.1 M KCl, 25° C.). […] The binding affinity is over 400-fold weaker than chromis-1 acid, and approximately 10-fold lower than chromis-1 ester. The discrepancy in binding affinities is likely due to a combination of two factors. […]
A solution of Formula I, Formula II, and/or a derivative thereof (e.g., for example probe 8) was diluted from a 3.0 mM DMSO stock solution to a final concentration of 10 μM in Chelex®-treated PIPES buffer (10 mM, 0.1 M KCl, pH 7.0) containing 10 μM of Zn(OTf)2 and 100 μM of liposomes (4:1 mixture of DMPC and DMPG). […] After the addition of each aliquot of EGTA, the solution was allowed to equilibrate for 1 minute, and a fluorescence spectrum (excitation at 405 nm, spectral window 415-665 nm) was acquired. The titration was conducted in triplicate, and the data were analyzed by nonlinear least-squares fitting over the entire spectral range using the SPECFIT software package.

[2] = Metal-ion selectivity measurement (emission-ratiometric response); assay type: physicochemical; conditions: liposomes, pH 7.0
Method: FIG. 5C illustrates an exemplary table providing exemplary photophysical properties of Formula I, Formula II, and/or a derivative thereof (e.g., for example probe 8) and its Zn(II)-probe complex in PIPES buffer containing 100 μM of 4:1 DMPC:DMPG liposomes (pH 7.0, 10 mM PIPES, 0.1 M KCl, 25° C.). The fluorescence response of the probe 8 (10 PM) was measured in the presence of 100 μM 4:1 DMPC:DMPG liposomes (pH 7.0, 10 mM PIPES, 0.1 M KCl, 25° C.) and an excess of selected biologically relevant divalent metal ions (FIG. 5A). […]
A solution of Formula I, Formula II, and/or a derivative thereof (e.g., for example probe 8) (10 μM) in Chelex®-PIPES buffer (10 mM, 0.1 M KCl, pH 7.0, 25° C.) containing 100 μM of liposomes (4:1 mixture of DMPC and DMPG) prepared in a quartz cuvette with a 1-cm pathlength. A fluorescence spectrum was acquired over the spectral window of 415-700 nm with excitation at 405 nm. Under magnetic stirring, the solution was supplemented with each divalent metal cation (8.0 μM, which corresponds to 80% fractional saturation of the probe, or 2.0 mM Ca(II) and Mg(II) ions), and a fluorescence spectrum was immediately acquired. […] The fluorescence spectrum was acquired after 10 min equilibration to ensure complete formation of the probe 8 Zn(II)-complex. […]

With `COc1ccc2c(c1)C(C)(C)c1nc(-c3cccc(CN(Cc4ncccn4)Cc4ncccn4)n3)sc1-2` [probe 8] the “binding affinity weaker than chromis-1 acid” value ([1]; Zn(II) affinity compared with chromis-1 acid) was “over 400 fold”, the “binding affinity lower than chromis-1 ester” value ([1]; Zn(II) affinity compared with chromis-1 ester) was “approximately 10 fold” and the Kd ([1]; pH 7.0, ionic background 0.1 M KCl, 25° C., liposomes, read-out: apparent dissociation constant Kd for Zn(II)) was 18.5 nM. For the same compound, the “fluorescence response to Ca(II) and Mg(II)” value ([2]; 2.0 mM of either metal ion) was “Neither Ca(II) nor Mg(II) resulted in any significant fluorescence change” and the “fluorescence response to divalent transition metals” value ([2]; 0.8 molar equivalents of metal, 10 μM probe) was “quenching of the fluorescence”.
